Laboratory results published in patent US20060194837A1, “Tetrahydroisoquinoline compounds” (priority 2004, published 2006).
Where two headings read alike, the source gives them in different places.

What was measured:
Rat SERT = target: T1, Rat SERT (Rattus norvegicus, UniProt P31652); assay: Rat brain SERT binding ([3H]-citalopram displacement); details: rat brain membranes without cerebellum, 0.6 nM [3H]-citalopram, 60 min at 25° C.
T1 construct: A rat brain without cerebellum (Zivic Laboratories, Inc.—Pittsburgh, Pa.) was homogenized; tissue Zivic Laboratories, Inc; host or cells: rat brain without cerebellum, membranes
T1 sequence (P31652 whole entry): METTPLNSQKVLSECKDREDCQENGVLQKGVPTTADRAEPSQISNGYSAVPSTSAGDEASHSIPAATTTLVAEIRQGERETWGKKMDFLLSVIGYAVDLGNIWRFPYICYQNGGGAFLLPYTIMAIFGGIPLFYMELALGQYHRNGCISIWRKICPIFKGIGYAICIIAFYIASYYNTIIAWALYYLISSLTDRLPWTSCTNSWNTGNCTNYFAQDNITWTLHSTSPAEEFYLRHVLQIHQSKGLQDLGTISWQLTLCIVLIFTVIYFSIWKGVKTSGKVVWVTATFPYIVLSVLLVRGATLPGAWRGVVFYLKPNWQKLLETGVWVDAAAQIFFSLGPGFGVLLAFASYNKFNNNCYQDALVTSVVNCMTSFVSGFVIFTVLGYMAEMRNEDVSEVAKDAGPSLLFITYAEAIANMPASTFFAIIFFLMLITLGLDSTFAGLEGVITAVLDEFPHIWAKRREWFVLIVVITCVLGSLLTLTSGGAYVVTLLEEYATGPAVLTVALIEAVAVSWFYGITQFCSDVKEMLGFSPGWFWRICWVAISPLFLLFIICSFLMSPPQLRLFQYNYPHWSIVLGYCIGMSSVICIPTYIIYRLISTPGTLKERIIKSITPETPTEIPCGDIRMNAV
Description: The supernatant was removed and re-centrifuged at 15,000 rpm for 30 min. […] Membranes were incubated with 0.6 nM [^3H]-Citalopram plus/minus test compounds for 60 min at 25° C. and harvested by rapid filtration over GF/C glass fiber filters (pretreated with 0.3% polyethylenimine) followed by four washes with ice-cold buffer.

human H3 receptor = target: T2, human H3 receptor (Homo sapiens, UniProt Q9Y5N1); assay: H3 receptor binding (N-[3H]-α-methylhistamine displacement); details: membranes of SK-N-MC cells expressing cloned human H3 receptor, 0.8 nM N-[3H]-α-methylhistamine, 60 min at 25° C.
T2 construct: expressed in transfected cells
T2 sequence (Q9Y5N1 whole entry): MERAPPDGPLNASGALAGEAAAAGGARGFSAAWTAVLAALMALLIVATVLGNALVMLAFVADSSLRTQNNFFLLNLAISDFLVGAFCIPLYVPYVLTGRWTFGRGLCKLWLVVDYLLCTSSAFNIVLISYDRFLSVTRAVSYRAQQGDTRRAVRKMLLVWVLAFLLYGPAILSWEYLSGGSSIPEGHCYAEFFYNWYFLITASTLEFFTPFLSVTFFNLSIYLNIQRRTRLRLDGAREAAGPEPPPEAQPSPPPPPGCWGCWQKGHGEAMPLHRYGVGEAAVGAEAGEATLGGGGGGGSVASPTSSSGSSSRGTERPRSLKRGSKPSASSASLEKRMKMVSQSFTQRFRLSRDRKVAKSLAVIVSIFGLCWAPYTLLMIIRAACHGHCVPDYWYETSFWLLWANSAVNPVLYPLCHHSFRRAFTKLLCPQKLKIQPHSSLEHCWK

Structure (SMILES) | Ki (Rat SERT; read-out: Rat SERT Ki) [nM] | Ki (human H3 receptor) [nM] | Ki (Rat SERT; Rat SERT Ki (nM)) [nM]
COc1ccc(C2CN(C(C)c3ccccc3)Cc3cc(OCCCN4CCOCC4)ccc32)cc1 (single isomer, unassigned) [Example 75A, 4-(4-Methoxy-phenyl)-7-(3-morpholin-4-yl-propoxy)-2-(1-phenyl-ethyl)-1,2,3,4-tetrahydro-isoquinoline] | 2000 | 7 | 
COc1ccc(C2CN(C)Cc3cc(OCC4CN(C)CCO4)ccc32)cc1 (mixture of isomers) [Example 251, 4-(4-Methoxy-phenyl)-2-methyl-7-(4-methyl-morpholin-2-ylmethoxy)-1,2,3,4-tetrahydro-isoquinoline] | 12 | 67 | 
COc1ccc(C2CN(C)Cc3cc(OC[C@H]4CN(C5CC5)CCO4)ccc32)cc1 (single isomer, unassigned) [Example 261A, 7-(4-Cyclopropyl-morpholin-2R-ylmethoxy)-4-(4-methoxy-phenyl)-2-methyl-1,2,3,4-tetrahydro-isoquinoline] | 32 | 73 | 
CN1Cc2cc(OCCCN3CCC(F)CC3)ccc2C(c2ccc(Cl)cc2Cl)C1 (centres unmarked) [Example 54, 4-(2,4-Dichloro-phenyl)-7-[3-(4-fluoro-piperidin-1-yl)-propoxy]-2-methyl-1,2,3,4-tetrahydro-isoquinoline] |  | 16 | 32
COc1ccc(C2CN(CCCO)Cc3cc(OCCCN4CCCCC4)ccc32)cc1 (centres unmarked) [Example 70, 3-[4-(4-Methoxy-phenyl)-7-(3-piperidin-1-yl-propoxy)-3,4-dihydro-1H-isoquinolin-2-yl]-propan-1-ol] | 49 | 1 | 

Second part, led by results:

Ki (Rat SERT; read-out: Rat SERT Ki) [nM] | Ki (human H3 receptor) [nM] | Structure (SMILES) | Ki (Rat SERT; Rat SERT Ki (nM)) [nM]
6 | 4 | COc1ccc(C2CN(C)Cc3cc(OCC4CCN(C5CC5)CC4)ccc32)cc1 (centres unmarked) [Example 249, 7-(1-Cyclopropyl-piperidin-4-ylmethoxy)-4-(4-methoxy-phenyl)-2-methyl-1,2,3,4-tetrahydro-isoquinoline] | 
5 | 21 | COc1ccc(C2CN(C)Cc3cc(OCCC4CCCN4C)ccc32)cc1 (single isomer, unassigned) [Example 240B, 4-(4-Methoxy-phenyl)-2-methyl-7-[2-(1-methyl-pyrrolidin-2-yl)-ethoxy]-1,2,3,4-tetrahydro-isoquinoline] | 
3 | 119 | COc1ccc(C2CN(C)Cc3cc(OC4CCNCC4)ccc32)cc1F (centres unmarked) [Example 151, 4-(3-Fluoro-4-methoxy-phenyl)-2-methyl-7-(piperidin-4-yloxy)-1,2,3,4-tetrahydro-isoquinoline] | 
2 | 96 | COc1ccc(C2CN(C)Cc3cc(OCC4CCNCC4)ccc32)cc1 (centres unmarked) [Example 78, 4-(4-Methoxy-phenyl)-2-methyl-7-(piperidin-4-ylmethoxy)-1,2,3,4-tetrahydro-isoquinoline] | 
6 | 25 | COc1ccc(C2CN(C)Cc3cc(OCCCN4Cc5ccccc5C4)ccc32)cc1 (centres unmarked) [Example 16, 7-[3-(1,3-Dihydro-isoindol-2-yl)-propoxy]-4-(4-methoxy-phenyl)-2-methyl-1,2,3,4-tetrahydro-isoquinoline] | 
1 | 52 | C=CCNCCCOc1ccc2c(c1)CN(C)CC2c1ccc(OC)cc1 (centres unmarked) [Example 227, Allyl-{3-[4-(4-methoxy-phenyl)-2-methyl-1,2,3,4-tetrahydro-isoquinolin-7-yloxy]-propyl}-amine] | 
2 | 263 | COc1ccc(C2CN(C)Cc3cc(OC[C@H]4CNCCO4)ccc32)cc1 (stereo partly drawn) [Example 253, 4-(4-Methoxy-phenyl)-2-methyl-7-(morpholin-2R-ylmethoxy)-1,2,3,4-tetrahydro-isoquinoline] | 
3 | 227 | COc1ccc(C2CN(C)Cc3cc(OCCCN4CCN(c5nccs5)CC4)ccc32)cc1 (centres unmarked) [Example 200, 4-(4-Methoxy-phenyl)-2-methyl-7-[3-(4-thiazol-2-yl-piperazin-1-yl)-propoxy]-1,2,3,4-tetrahydro-isoquinoline] | 
